From patent publication US11648254B2 (Kumquat Biosciences Inc., priority 2021, dated 2023)
Read-outs that look alike come from different tables or passages of the source.

Experiments:
SOS1 = SOS1 (Homo sapiens (Human), UniProt Q07889); assay: Ras-SOS interaction assay (HTRF); type: biochemical
[1] = tested on: MIA PaCa-2 cells (K-Ras G12C); assay: Ras-SOS cellular growth inhibition assay (CellTiter-Glo, 3D); type: cell-based; conditions: Homo sapiens
Method in brief: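 Growth read by CellTiter-Glo luminescence about 5 days after dosing with 3-fold dilutions (9 points), added one day post-seeding. Cells: MIA PaCa-2, 3D culture on ultra-low-attachment surface, medium DMEM/Ham's F12 plus 10% FCS and 2.5% horse serum; IC50 by four-parameter fit.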

[2] = tested on: NCI-H1975 cells (EGFR T790M L858R); assay: EGFR-SOS cellular inhibition assay (CellTiter-Glo, 3D); type: cell-based; conditions: Homo sapiens
[3] = K-RasG13D utilized, read-out: IC50 inhibition of SOS
[4] = MIA PaCa-2, 120 h, MIA PaCa-2, 3D proliferation, about 5 days, read-out: Bio-Cell-Prolif-3D (MiaPaca2 IC50)
[5] = 120 h, NCI-H1975, 3D proliferation, about 5 days, read-out: Bio-Cell-Prolif-3D (H1975 IC50)
[6] = K-RasG13D, read-out: IC50 value against SOS1
[7] = MIA PaCa-2, MIA PaCa-2, read-out: IC50 in inhibiting MIA PaCa-2 cell growth
[8] = NCI-H1975, EGFR T790M L858R, read-out: IC50 in inhibiting growth of NCI-H1975 cell line

Sequence of SOS1 (Q07889 564-1049): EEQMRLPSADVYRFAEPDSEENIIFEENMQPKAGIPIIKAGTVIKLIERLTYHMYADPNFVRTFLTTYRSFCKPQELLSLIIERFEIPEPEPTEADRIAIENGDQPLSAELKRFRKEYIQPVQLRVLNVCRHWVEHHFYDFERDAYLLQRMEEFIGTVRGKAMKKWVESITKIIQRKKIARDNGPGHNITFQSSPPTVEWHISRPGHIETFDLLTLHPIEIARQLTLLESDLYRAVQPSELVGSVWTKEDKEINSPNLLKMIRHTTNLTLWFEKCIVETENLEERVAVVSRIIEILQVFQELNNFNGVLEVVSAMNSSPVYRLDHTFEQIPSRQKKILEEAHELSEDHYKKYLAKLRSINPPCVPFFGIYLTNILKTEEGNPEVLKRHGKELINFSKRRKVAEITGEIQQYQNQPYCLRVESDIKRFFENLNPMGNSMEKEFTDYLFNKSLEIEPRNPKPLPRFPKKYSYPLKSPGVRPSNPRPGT

| SMILES | IC50 (SOS1; [3]) [nM] | IC50 [1, 4] [nM] | IC50 [2, 5] [nM] | IC50 (SOS1; [6]) [nM] | IC50 [1, 7] [nM] | IC50 [2, 8] [nM] |
| --- | --- | --- | --- | --- | --- | --- |
| Cc1nc(N[C@H](C)c2cccc(C(F)F)c2F)c2cc(N3CCN(C(C)C)CC3)c(OC3COC3)nc2n1 [Compound 336, (R)-N-(1-(3-(difluoromethyl)-2-fluorophenyl)ethyl)-6-(4-isopropylpiperazin-1-yl)-2-methyl-7-(oxetan-3-yloxy)pyrido [2,3-d]pyrimidin-4-amine] | < 100 | ≤ 1000 | ≤ 1000 | < 50 | < 500 | < 500 |
| COc1nc2nc(C)nc(N[C@H](C)c3cccc(C(F)F)c3F)c2cc1C1CCN(C2CCOCC2)CC1 [Compound 337, (R)-N-(1-(3-(difluoromethyl)-2-fluorophenyl)ethyl)-7-methoxy-2-methyl-6-(1-(tetrahydro-2H-pyran-4-yl)piperidin-4-yl)pyrido[2,3-d]pyrimidin-4-amine] | < 100 | ≤ 1000 | ≤ 1000 | < 50 | < 500 | < 500 |
| COc1nc2nc(C)nc(N[C@H](C)c3cccc(C(F)F)c3F)c2cc1N1CCN(C2CCOCC2)CC1 [Compound 338, (R)-N-(1-(3-(difluoromethyl)-2-fluorophenyl)ethyl)-7-methoxy-2-methyl-6-(4-(tetrahydro-2H-pyran-4-yl)piperazin-1-yl)pyrido[2,3-d]pyrimidin-4-amine] | < 100 | ≤ 1000 | ≤ 1000 | < 50 | – | < 500 |
| Cc1nc(N[C@H](C)c2cccc(C(F)F)c2F)c2cc(C3CCN(C(C)C)CC3)c(OC3CNC3)nc2n1 [Compound 340, (R)-7-(azetidin-3-yloxy)-N-(1-(3-(difluoromethyl)-2-fluorophenyl)ethyl)-6-(1-isopropylpiperidin-4-yl)-2-methylpyrido[2,3-d]pyrimidin-4-amine] | < 100 | 1000 to 10000 | 1000 to 10000 | < 50 | – | – |
| Cc1nc(N[C@H](C)c2cccc(C(F)F)c2F)c2cc(S(=O)(=O)C3CCN(C)CC3)c(C#N)nc2n1 [Compound 341, (R)-4-((1-(3-(difluoromethyl)-2-fluorophenyl)ethyl)amino)-2-methyl-6-((1-methylpiperidin-4-yl)sulfonyl)pyrido[2,3-d] pyrimidine-7-carbonitrile] | < 100 | ≤ 1000 | ≤ 1000 | < 50 | < 500 | < 500 |
| COc1nc2nc(C)nc(N[C@H](C)c3cccc(C(F)(F)CO)c3)c2cc1N1CCN(C(C)C)CC1 [Compound 345, (R)-2,2-difluoro-2-(3-(1-((6-(4-isopropylpiperazin-1-yl)-7-methoxy-2-methylpyrido[2,3-d]pyrimidin-4-yl)amino)ethyl)phenyl)ethan-1-ol] | < 100 | ≤ 1000 | ≤ 1000 | < 50 | < 500 | < 500 |
| Cc1nc(N[C@H](C)c2cccc(C(F)(F)F)c2F)c2cc(C3(C#N)CC3)c(N3CCN(C(C)C)CC3)nc2n1 [Compound 346, (R)-1-(4-((1-(2-fluoro-3-(trifluoromethyl)phenyl)ethyl)amino)-7-(4-isopropylpiperazin-1-yl)-2-methylpyrido[2,3-d]pyrimidin-6-yl)cyclopropane-1-carbonitrile] | < 100 | ≤ 1000 | ≤ 1000 | < 50 | < 500 | < 500 |
| Cc1nc(N[C@H](C)c2cccc(C(F)(F)CO)c2F)c2cc(C3(C#N)CC3)c(N3CCN(C(C)C)CC3)nc2n1 [Compound 347, (R)-1-(4-((1-(3-(1,1-difluoro-2-hydroxyethyl)-2-fluorophenyl)ethyl)amino)-7-(4-isopropylpiperazin-1-yl)-2-methylpyrido[2,3-d]pyrimidin-6-yl)cyclopropane-1-carbonitrile] | < 100 | ≤ 1000 | ≤ 1000 | < 50 | < 500 | < 500 |
| Cc1nc(N[C@H](C)c2cccc(C(F)F)c2F)c2cc(N3CCN(C(C)C)CC3)c(OCCN(C)C)nc2n1 [Compound 359, (R)-N-(1-(3-(difluoromethyl)-2-fluorophenyl)ethyl)-7-(2-(dimethylamino)ethoxy)-6-(4-isopropylpiperazin-1-yl)-2-methylpyrido[2,3-d] pyrimidin-4-amine] | < 100 | ≤ 1000 | ≤ 1000 | < 50 | < 500 | < 500 |
| Cc1nc(N[C@H](C)c2cccc(C(F)F)c2F)c2cc(N3CCN(C(C)C)CC3)c(OC3CNC3)nc2n1 [Compound 367, (R)-7-(azetidin-3-yloxy)-N-(1-(3-(difluoromethyl)-2-fluorophenyl)ethyl)-6-(4-isopropylpiperazin-1-yl)-2-methylpyrido[2,3-d]pyrimidin-4-amine] | < 100 | 1000 to 10000 | ≤ 1000 | < 50 | – | < 500 |
| Cc1nc(N[C@H](C)c2cccc(C(F)F)c2F)c2cc(C3CCN(C(C)C)CC3)c(OCCN(C)C)nc2n1 [Compound 369, (R)-N-(1-(3-(difluoromethyl)-2-fluorophenyl)ethyl)-7-(2-(dimethylamino)ethoxy)-6-(1-isopropylpiperidin-4-yl)-2-methylpyrido[2,3-d] pyrimidin-4-amine] | < 100 | 1000 to 10000 | ≤ 1000 | < 50 | – | – |
| Cc1nc(N[C@H](C)c2cccc(C(F)F)c2F)c2cc(N3CCN(C(C)C)CC3)c(OC3CN(C)C3)nc2n1 [Compound 370, (R)-N-(1-(3-(difluoromethyl)-2-fluorophenyl)ethyl)-6-(4-isopropylpiperazin-1-yl)-2-methyl-7-((1-methylazetidin-3-yl)oxy)pyrido[2,3-d]pyrimidin-4-amine] | < 100 | ≤ 1000 | ≤ 1000 | < 50 | – | – |

Other lines, results leading:

| IC50 (SOS1; [3]) [nM] | IC50 [1, 4] [nM] | IC50 [2, 5] [nM] | IC50 (SOS1; [6]) [nM] | IC50 [1, 7] [nM] | IC50 [2, 8] [nM] | SMILES |
| --- | --- | --- | --- | --- | --- | --- |
| < 100 | ≤ 1000 | ≤ 1000 | – | – | – | Cc1nc(N[C@H](C)c2cccc(C(F)F)c2F)c2cc(C3CCN(C(C)C)CC3)c(OC3COC3)nc2n1 [Compound 335, (R)-N-(1-(3-(difluoromethyl)-2-fluorophenyl)ethyl)-6-(1-isopropylpiperidin-4-yl)-2-methyl-7-(oxetan-3-yloxy)pyrido [2,3-d]pyrimidin-4-amine] |
| < 100 | ≤ 1000 | ≤ 1000 | < 50 | – | < 500 | COc1nc2ncnc(N[C@H](C)c3cccc(C(F)F)c3F)c2cc1C1(C#N)CCS(=O)(=O)CC1 [Compound 342, (R)-4-(4-((1-(3-(difluoromethyl)-2-fluorophenyl)ethyl)amino)-7-methoxypyrido[2,3-d]pyrimidin-6-yl)tetrahydro-2H-thiopyran-4-carbonitrile 1,1-dioxide] |
| < 100 | ≤ 1000 | ≤ 1000 | < 50 | – | < 500 | COCCOc1nc2nc(C)nc(N[C@H](C)c3cccc(C(F)F)c3F)c2cc1N1CCN(C)CC1 [Compound 343, (R)-N-(1-(3-(difluoromethyl)-2-fluorophenyl)ethyl)-7-(2-methoxyethoxy)-2-methyl-6-(4-methylpiperazin-1-yl)pyrido[2,3-d] pyrimidin-4-amine] |
| < 100 | ≤ 1000 | ≤ 1000 | < 50 | < 500 | < 500 | COc1nc2nc(C)nc(N[C@H](C)c3cccc(C(F)(F)F)c3F)c2cc1N1CCN(C)CC1 [Compound 349, (R)-N-(1-(2-fluoro-3-(trifluoromethyl)phenyl)ethyl)-7-methoxy-2-methyl-6-(4-methylpiperazin-1-yl)pyrido[2,3-d]pyrimidin-4-amine] |
| < 100 | ≤ 1000 | ≤ 1000 | < 50 | < 500 | < 500 | CCN1CCN(c2cc3c(N[C@H](C)c4cccc(C(F)(F)F)c4C)nc(C)nc3nc2OC)CC1 [Compound 350, (R)-6-(4-ethylpiperazin-1-yl)-7-methoxy-2-methyl-N-(1-(2-methyl-3-(trifluoromethyl)phenyl)ethyl)pyrido [2,3-d]pyrimidin-4-amine] |
| < 100 | ≤ 1000 | ≤ 1000 | < 50 | < 500 | < 500 | COCCOc1nc2nc(C)nc(N[C@H](C)c3cccc(C(F)F)c3F)c2cc1N1CCN(C(C)C)CC1 [Compound 360, (R)-N-(1-(3-(difluoromethyl)-2-fluorophenyl)ethyl)-6-(4-isopropylpiperazin-1-yl)-7-(2-methoxyethoxy)-2-methylpyrido [2,3-d]pyrimidin-4-amine] |
| 100 to 1000 | 1000 to 10000 | ≤ 1000 | – | – | < 500 | Cc1c([C@@H](C)Nc2ncnc3nc(Cl)c(C4(C#N)CC4)cc23)cccc1C(F)(F)F [Compound 364, (R)-1-(7-chloro-4-((1-(2-methyl-3-(trifluoromethyl)phenyl)ethyl)amino)pyrido[2,3-d]pyrimidin-6-yl) cyclopropane-1-carbonitrile] |
| < 100 | 1000 to 10000 | ≤ 1000 | < 50 | – | < 500 | COCCOc1nc2nc(C)nc(N[C@H](C)c3cccc(C(F)F)c3F)c2cc1C1CCS(=N)(=O)CC1 (stereo partly drawn) [Compound 368, (R)-4-(4-((1-(3-(difluoromethyl)-2-fluorophenyl)ethyl)amino)-7-(2-methoxyethoxy)-2-methylpyrido[2,3-d]pyrimidin-6-yl)-1-iminohexahydro-1l6-thiopyran 1-oxide] |
